Columns and labels:
[1] = test system: RXRγ, FXR, SXR, PPARα, PPARγ, RARα, AHR, VDR, GR, PR, AR, ERα, ERβ; assay: Gene reporter luciferase assays on other nuclear receptors; format: cell-based, human; settings: 2.5 µM DDA, 8 h, with or without cognate agonist
Excerpt: HEK293T were used for luciferase assays. Cells were transfected using the PolyEthylenImine (PEI) method with human retinoid-X receptor (RXRγ) and human liver-X-receptors (LXRα or LXRβ) with LXRE-Luc; RXRγ and human farnesoid X receptor (FXR) with EcRE-Luc; RXRγ and human steroid and xenobiotic X receptor (SXR) with DR4-Luc; RXRγ and human peroxisome proliferator activated receptors (PPARα, or PPARγ) with PPRE-Luc; RXRγ and human retinoic acid receptor (RARα) with DR1-Luc; human AHR and human ARNT with a DRE-Luc; human vitamin D receptor (VDR) with VDRE-Luc. Cells were transfected with plasmids encoding human glucocorticoid receptor (GR), progesterone receptor (PR), or androgen receptor (AR) with MMTV-Luc; or estrogen receptors (ERα and ERβ) with an ERE-Luc. The day after transfection with the luciferase reporter gene construct, cells were seeded in 12-well plates (50,000 cells per well). […] Luciferase activity was measured using the luciferase assay reagent (Promega), according to the manufacturer’s instructions. Protein concentrations were measured using the Bradford method to normalize luciferase activities. For each condition, luciferase activity was calculated from the data of three independent wells. […]

[2] = test system: normal hematopoietic progenitor cells; assay: Normal human CD34+ cells engrafted into NSG mice; format: in vivo; settings: human BM CD34+ engrafted into NSG mice; 20 mg/kg/day i.p., 3 weeks
Excerpt: AML patient and normal bone marrow samples were obtained from patients in the Hematology Department of Toulouse (France), after obtaining consent in accordance with the Declaration of Helsinki[67], and according to institutional guidelines. Samples were stored at the INSERM-1037 HIMIP collection (no. DC-2008-307-CPTP1 HIMIP). For some experiments, fresh leukemic blasts recovered at diagnosis were immediately treated with DDA. In other cases, frozen cells were thawed in IMDM medium with 20% FBS. Patient characteristics are shown in supplementary data 1. Normal bone marrow cells were subjected to Ficoll-Paque density gradient separation to isolate mononuclear cells, followed by CD34+ cell separation using high-gradient magnetic-activated cell sorting, according to the manufacturer’s manual. The in vivo assays were performed with cryopreserved cells.
The engraftment of human primary AML cells was performed on NSG mice. […] Two and a half weeks after the injection of human cells, mice were treated with DDA (20 mg/kg/day by IP injection) or vehicle as control for 2, 3 weeks, after which the engraftment of human AML and normal hematopoietic cells was measured in the bone marrow, spleen and brain by quantifying the percentage of hCD45+CD33+ cells by flow cytometry. The viability of AML cells was established by quantifying the percentage of hCD45+CD33+Annexin-V- cells.

CC(C)CCC[C@@H](C)[C@H]1CC[C@H]2[C@@H]3C[C@@H](NCCc4cnc[nH]4)[C@@]4(O)C[C@@H](O)CC[C@]4(C)[C@H]3CC[C@]12C [DDA, Dendrogenin A] was tested. Which “agonistic or antagonistic transcriptional activity on other NRs” value [1] did it give?
Its value is “did not show any agonistic or antagonistic transcriptional activity”.

And the “effect on normal hematopoietic progenitor cells” value [2]?
Its value is “no effect”.

From publication PMC5712521, “Dendrogenin A drives LXR to trigger lethal autophagy in cancers” (Nature Communications, 2017)
